Source: publication PMC7904550, “Application of grouping and read-across for the evaluation of parabens of different chain lengths with a particular focus on endocrine properties” (Archives of Toxicology, 2021)
Read-outs that look alike come from different tables or passages of the source.

Columns and labels:
rats [1] = details: acute oral, rats, OECD 401; ref ECHA dissemination portal; cited from earlier work
rats [2] = details: rat, in vivo; cited from earlier work
Wistar rats [3] = details: ref Harlan 2012, cited from earlier work
rats [4] = details: rat, in vivo; cited from earlier work; remark: listed apart in the source
Wistar rats [5] = assay: Higher-tier studies taken together (OECD TG 408, 414, 421/422, 443): NOAEL
Protocol: All in vivo studies were conducted as oral gavage studies, selecting the oral route as most appropriate route of administration to reflect the worst-case exposure scenario. […] The OECD TG 443 included mating of first generation (F1) offspring to produce a second generation (F2), and the DIT and DNT cohorts.

Wistar rats [6] = assay: Prenatal developmental toxicity study (OECD TG 414); format: in vivo, rat; details: for NOAEL, developmental toxicity: OECD 414 v 2001, oral gavage
From the text: Healthy and specific pathogen-free male and female (non-pregnant and nulliparous) Wistar Crl: WI(Han) rats were obtained from Charles River Laboratories (Germany). […] Upon arrival at BSL BIOSERVICE, the animals underwent an acclimatisation period of at least 5 days, and they were approximately 15–16 weeks old at the onset of the treatment period.

[7] = Octanol–water partition coefficient (Log Kow); format: physicochemical; details: mean; OECD TG 107 and OECD TG 117
From the text: Generally, these parabens have very similar physico-chemical properties.

In the case of `CCCOC(=O)c1ccc(O)cc1` [Propyl paraben, Propyl 4-hydroxybenzoate], the LD50 (rats [1]) is listed as > 5000 (OECD 401; 1982) mg/kg bw, the “Eye irritation/eye corrosion classification” value (rats [2]) is listed as “Not irritating [c] (OECD 437 and 405; 2012)” and the NOAEL (Wistar rats [3]; historical OECD TG 422 feeding study, 15,000 ppm, first-generation offspring) is listed as 1125 mg/kg bw/day. The NOAEL (Wistar rats [3]; historical OECD TG 422 feeding study, 15,000 ppm, parental females before pairing) was 1076 mg/kg bw/day, the NOAEL (Wistar rats [3]; historical OECD TG 422 feeding study, 15,000 ppm, parental males before pairing) was 981 mg/kg bw/day and the NOAEL (Wistar rats [3]; historical OECD TG 422 feeding study, highest concentration tested) was 15,000 ppm. The “Skin irritation/skin corrosion classification” value (rats [4]) was “Not irritating (read-across)”, the “NOAEL, repeated-dose toxicity and DART, all higher-tier studies” value (Wistar rats [5]; limit dose, oral gavage) was 1000 mg/kg bw/day and the “NOAEL: Accessory sex organs HP” value (Wistar rats [5]; over all higher-tier studies) was 1000 / 1000 mg/kg bw/day. For the same molecule, the “NOAEL: Adrenals HP” value (Wistar rats [5]; over all higher-tier studies) was 1000 / 1000 mg/kg bw/day, the “NOAEL: Adrenals weight” value (Wistar rats [5]; over all higher-tier studies) was 1000 / 1000 mg/kg bw/day and the “NOAEL: Age at balano-preputial separation” value (Wistar rats [5]; over all higher-tier studies) was 1000 / 1000 mg/kg bw/day. For the same molecule, the “NOAEL: Age at vaginal opening” value (Wistar rats [5]; over all higher-tier studies) was 1000 / 1000 mg/kg bw/day, the “NOAEL: Anogenital distance” value (Wistar rats [5]; over all higher-tier studies) was 1000 / 1000 mg/kg bw/day and the “NOAEL: Auditory startle” value (Wistar rats [5]; over all higher-tier studies) was 1000 / 1000 mg/kg bw/day. For the same molecule, the “NOAEL: Brain HP” value (Wistar rats [5]; over all higher-tier studies) was 1000 / 1000 mg/kg bw/day, the “NOAEL: Brain morphometric evaluation” value (Wistar rats [5]; over all higher-tier studies) was 1000 / 1000 mg/kg bw/day and the “NOAEL: Brain weight” value (Wistar rats [5]; over all higher-tier studies) was 1000 / 1000 mg/kg bw/day. For the same molecule, the “NOAEL: Cervix HP” value (Wistar rats [5]; over all higher-tier studies) was 1000 / 1000 mg/kg bw/day, the “NOAEL: Coagulating gland HP” value (Wistar rats [5]; over all higher-tier studies) was 1000 / 1000 mg/kg bw/day and the “NOAEL: Coagulating gland weight” value (Wistar rats [5]; over all higher-tier studies) was 1000 / 1000 mg/kg bw/day. The “NOAEL: Colloid area (thyroid HP)” value (Wistar rats [5]; over all higher-tier studies) was 1000 / 1000 mg/kg bw/day, the “NOAEL: Dystocia” value (Wistar rats [5]; over all higher-tier studies) was 1000 / 1000 mg/kg bw/day and the “NOAEL: Epididymis HP” value (Wistar rats [5]; over all higher-tier studies) was 1000 / 1000 mg/kg bw/day. The “NOAEL: Epididymis weight” value (Wistar rats [5]; over all higher-tier studies) was 1000 / 1000 mg/kg bw/day, the “NOAEL: Fertility” value (Wistar rats [5]; over all higher-tier studies) was 1000 / 1000 mg/kg bw/day and the “NOAEL: Foetal development” value (Wistar rats [5]; over all higher-tier studies) was 1000 / 1000 mg/kg bw/day. The “NOAEL: Functional observation battery” value (Wistar rats [5]; over all higher-tier studies) was 1000 / 1000 mg/kg bw/day, the “NOAEL: Genital abnormalities” value (Wistar rats [5]; over all higher-tier studies) was 1000 / 1000 mg/kg bw/day and the “NOAEL: Gestation length” value (Wistar rats [5]; over all higher-tier studies) was 1000 / 1000 mg/kg bw/day. The “NOAEL: Litter / pup weight” value (Wistar rats [5]; over all higher-tier studies) was 1000 / 1000 mg/kg bw/day, the “NOAEL: Litter size” value (Wistar rats [5]; over all higher-tier studies) was 1000 / 1000 mg/kg bw/day and the “NOAEL: Litter viability” value (Wistar rats [5]; over all higher-tier studies) was 1000 / 1000 mg/kg bw/day. For the same molecule, the “NOAEL: Liver weight” value (Wistar rats [5]; over all higher-tier studies) was 1000 / 1000 mg/kg bw/day, the “NOAEL: Mammary gland HP; females” value (Wistar rats [5]; over all higher-tier studies) was 1000 / 1000 mg/kg bw/day and the “NOAEL: Mammary gland HP; males” value (Wistar rats [5]; over all higher-tier studies) was 1000 / 1000 mg/kg bw/day. The “NOAEL: Motor activity” value (Wistar rats [5]; over all higher-tier studies) was 1000 / 1000 mg/kg bw/day, the “NOAEL: Nipple development” value (Wistar rats [5]; over all higher-tier studies) was 1000 / 1000 mg/kg bw/day and the “NOAEL: No. of implantations, corpora lutea” value (Wistar rats [5]; over all higher-tier studies) was 1000 / 1000 mg/kg bw/day. The “NOAEL: No. of live births” value (Wistar rats [5]; over all higher-tier studies) was 1000 / 1000 mg/kg bw/day, the “NOAEL: No. of ovarian follicles” value (Wistar rats [5]; over all higher-tier studies) was 1000 / 1000 mg/kg bw/day and the “NOAEL: Oestrus cyclicity” value (Wistar rats [5]; over all higher-tier studies) was 1000 / 1000 mg/kg bw/day. For the same molecule, the “NOAEL: Offspring: learning & memory” value (Wistar rats [5]; over all higher-tier studies) was 1000 / 1000 mg/kg bw/day, the “NOAEL: Ovary HP” value (Wistar rats [5]; over all higher-tier studies) was 1000 / 1000 mg/kg bw/day and the “NOAEL: Ovary weight” value (Wistar rats [5]; over all higher-tier studies) was 1000 / 1000 mg/kg bw/day. The “NOAEL: Oviduct HP” value (Wistar rats [5]; over all higher-tier studies) was 1000 / 1000 mg/kg bw/day, the “NOAEL: Pituitary HP” value (Wistar rats [5]; over all higher-tier studies) was 1000 / 1000 mg/kg bw/day and the “NOAEL: Pituitary weight” value (Wistar rats [5]; over all higher-tier studies) was 1000 / 1000 mg/kg bw/day. The “NOAEL: Postimplantation loss” value (Wistar rats [5]; over all higher-tier studies) was 1000 / 1000 mg/kg bw/day, the “NOAEL: Pre-implantation loss” value (Wistar rats [5]; over all higher-tier studies) was 1000 / 1000 mg/kg bw/day and the “NOAEL: Presence of anomalies” value (Wistar rats [5]; over all higher-tier studies) was 1000 / 1000 mg/kg bw/day. The “NOAEL: Prostate HP” value (Wistar rats [5]; over all higher-tier studies) was 1000 / 1000 mg/kg bw/day, the “NOAEL: Prostate weight” value (Wistar rats [5]; over all higher-tier studies) was 1000 / 1000 mg/kg bw/day and the “NOAEL: Pup development” value (Wistar rats [5]; over all higher-tier studies) was 1000 / 1000 mg/kg bw/day. For the same molecule, the “NOAEL: Reproduction” value (Wistar rats [5]; over all higher-tier studies) was 1000 / 1000 mg/kg bw/day, the “NOAEL: Seminal vesicles HP” value (Wistar rats [5]; over all higher-tier studies) was 1000 / 1000 mg/kg bw/day and the “NOAEL: Seminal vesicles weight” value (Wistar rats [5]; over all higher-tier studies) was 1000 / 1000 mg/kg bw/day. The “NOAEL: Sperm morphology” value (Wistar rats [5]; over all higher-tier studies) was 1000 / 1000 mg/kg bw/day, the “NOAEL: Sperm motility” value (Wistar rats [5]; over all higher-tier studies) was 1000 / 1000 mg/kg bw/day and the “NOAEL: Sperm numbers” value (Wistar rats [5]; over all higher-tier studies) was 1000 / 1000 mg/kg bw/day. The “NOAEL: Testis HP” value (Wistar rats [5]; over all higher-tier studies) was 1000 / 1000 mg/kg bw/day, the “NOAEL: Testis weight” value (Wistar rats [5]; over all higher-tier studies) was 1000 / 1000 mg/kg bw/day and the “NOAEL: Thyroid HP” value (Wistar rats [5]; over all higher-tier studies) was 1000 / 1000 mg/kg bw/day. The “NOAEL: Thyroid stimulating hormone level” value (Wistar rats [5]; over all higher-tier studies) was 1000 / 1000 mg/kg bw/day, the “NOAEL: Thyroid weight” value (Wistar rats [5]; over all higher-tier studies) was 1000 / 1000 mg/kg bw/day and the “NOAEL: Time to mating” value (Wistar rats [5]; over all higher-tier studies) was 1000 / 1000 mg/kg bw/day. For the same molecule, the “NOAEL: Triiodothyronine / thyroxine level” value (Wistar rats [5]; over all higher-tier studies) was 1000 / 1000 mg/kg bw/day, the “NOAEL: Uterus HP (with cervix)” value (Wistar rats [5]; over all higher-tier studies) was 1000 / 1000 mg/kg bw/day and the “NOAEL: Uterus weight (with cervix)” value (Wistar rats [5]; over all higher-tier studies) was 1000 / 1000 mg/kg bw/day. The “NOAEL: Vagina HP” value (Wistar rats [5]; over all higher-tier studies) was 1000 / 1000 mg/kg bw/day, the “NOAEL: Vaginal smears” value (Wistar rats [5]; over all higher-tier studies) was 1000 / 1000 mg/kg bw/day and the “NOAEL, developmental toxicity” value (Wistar rats [6]) was “NOAEL: 1000 (OECD 414; v 2001) mg/kg body weight/day”. For the same molecule, the “NOAEL, developmental toxicity” value (Wistar rats [6]; listed as propyl paraben) was 1000 mg/kg body weight/day, the Gestation length (Wistar rats [6]; OECD TG 414) was “n.a. / NAE” and the “NOAEL: No. of foetal deaths; viable foetuses” value (Wistar rats [6]; OECD TG 414) was 1000 mg/kg bw/day. For the same molecule, the “No. of implantations, corpora lutea” value (Wistar rats [6]; OECD TG 414) was “NAE / NAE”, the “No. of live births” value (Wistar rats [6]; OECD TG 414) was “NAE / NAE” and the Postimplantation loss (Wistar rats [6]; OECD TG 414) was “NAE / NAE”. For the same molecule, the Pre-implantation loss (Wistar rats [6]; OECD TG 414) was “NAE / NAE”, the “Uterus weight (with cervix)” value (Wistar rats [6]; OECD TG 414) was “NAE / NAE” and the “Thyroid HP” value (Wistar rats [6]; dams) was “NAE / NAE (dams)”. For the same molecule, the “Thyroid stimulating hormone level” value (Wistar rats [6]; dams) was “NAE / NAE (dams)”, the Thyroid weight (Wistar rats [6]; dams) was “NAE / NAE (dams)” and the “Triiodothyronine / thyroxine level” value (Wistar rats [6]; dams) was “NAE / NAE (dams)”. For the same molecule, the Anogenital distance (Wistar rats [6]; foetus) was “NAE / NAE”, the Foetal development (Wistar rats [6]; foetus) was “NAE / NAE” and the Litter size (Wistar rats [6]; foetus) was “NAE / NAE”. For the same molecule, the “No. of foetal deaths; viable foetuses” value (Wistar rats [6]; foetus) was “NAE / NAE”, the “Presence of anomalies (external, visceral, skeletal)” value (Wistar rats [6]; foetus) was “NAE / NAE” and the “Treatment-related effects in dams or pups” value (Wistar rats [6]; implantation throughout pregnancy) was “No treatment-related effects”. For the same molecule, the “Log Kow” value [7] was 2.8 (mean; OECD TG 107 and OECD TG 117).
